Series [1] concerns U87MG cells induced into senescence with palbociclib. Description: Crystal violet cell viability / IC50 assay in palbociclib-induced senescent U87MG cells. Format: cell-based, human. How it is done:
(§1) Navitoclax (ABT-263, Abbvie) was used as a positive control for senolysis. For chemotherapy-induced senescence we used Bleomycin (Mylan Pharmaceuticals) at 20 µM for 5 days. Alternatively, we also used 5 µM Palbociclib (MedChemExpress) for 7 days. Ionizing radiation at a dose of 10 Gy was applied to induce senescence. Doxycycline (Sigma), a stable tetracycline analogue, was used as an inducer for inducible expression systems at 1 µg/mL.
Cell viability was tested by crystal violet staining as reported previously (Feoktistova et al. 2016). Both proliferative and senescent cells from different cell lines were plated at a concentration of 1,2 × 10^4 cells per well in a 96-well plate. After a 24 h incubation period, they were treated with Compound 96558 at decreasing concentrations (with DMSO as the control) and at various time points. Subsequently, cells were washed with phosphate-buffered saline (PBS, Merck) and fixed with paraformaldehyde (Electron Microscopy Science) prepared at 2% in PBS for 15 minutes, followed by a 5 min staining process using a 0.1% crystal violet solution in Milli-Q water. After staining, the excess dye was removed, washed 3 times with water, and air dried. […] The absorbance was measured using a BioTek microplate reader equipped with Gen5 software.
Cell viability was evaluated following the previously mentioned protocol of crystal violet staining. […]

Series [2] concerns A549 proliferative cells. The experiment in a line: Apoptosis assay (Annexin V-FITC/7-AAD flow cytometry) in proliferative A549 cells. Format: cell-based, human. The following applies: 10 µM, 24 h. How it is done: (§2) A549 cells were resuspended into a single-cell suspension and plated at a density of 3 × 10^5 cells per well in six-well plates. After culturing for 24 h, the cells were treated with DMSO (control), the Compound, or a combination of pan-caspase inhibitor Z-VAD-FMK (Santa Cruz Biotech.) and the Compound. Following a 24 h incubation with the drugs, the cells were harvested by centrifugation at 3,000 rpm for 5 minutes and washed twice with PBS. Subsequently, the cells were resuspended in 500 µl of binding buffer. Then, 5 µl of Annexin V-FITC and 5 µl of 7-AAD (Elabscience) were used to detect the effect of Compound 96558 on cell apoptosis. The resulting samples were immediately analyzed by flow cytometry (FACScan, BD Biosciences), using the FITC channel (excitation: 488 nm and emission: 525 nm) and the 7-AAD channel (excitation: 488 nm and emission: 670 nm).
(§3) To investigate the potential mechanism of cell death by which the compound eliminates senescent cells, we analyzed apoptosis induction. For this, we conducted a flow cytometry assay to evaluate Annexin-V staining on bleomycin-induced senescent cells treated or not with our senolytic Candidate.
A general note: A flow cytometer gives signals particle by particle.

Series [3] concerns A549 Bleomycin-Induced Senescent Cells. The experiment in a line: Crystal violet cell viability / IC50 assay in bleomycin-induced senescent A549 cells. The series is classed as cell-based, human. The following applies: for pIC50: Homo sapiens, A549. As to the method: Navitoclax (ABT-263, Abbvie) was used as a positive control for senolysis. For chemotherapy-induced senescence we used Bleomycin (Mylan Pharmaceuticals) at 20 µM for 5 days. Alternatively, we also used 5 µM Palbociclib (MedChemExpress) for 7 days. Ionizing radiation at a dose of 10 Gy was applied to induce senescence. Doxycycline (Sigma), a stable tetracycline analogue, was used as an inducer for inducible expression systems at 1 µg/mL. Cell viability was tested by crystal violet staining as reported previously (Feoktistova et al. 2016). Both proliferative and senescent cells from different cell lines were plated at a concentration of 1,2 × 10^4 cells per well in a 96-well plate. After a 24 h incubation period, they were treated with Compound 96558 at decreasing concentrations (with DMSO as the control) and at various time points. […] After staining, the excess dye was removed, washed 3 times with water, and air dried. […] The absorbance was measured using a BioTek microplate reader equipped with Gen5 software. […] Cell viability was evaluated following the previously mentioned protocol of crystal violet staining. The IC50 calculations were performed using GraphPad Prism® software. First, we sought to validate the senolytic potential of the Candidate Compound within the same cell type and under the same conditions of senescence induction as employed during the high-throughput screening. To achieve this, we used A549 cells in which senescence was induced using bleomycin (20 µM; 5 days). Subsequently, following the confirmation of the senescent status of these cells in comparison to the proliferative control (Figure 8A), a cell viability assay was performed, employing crystal violet staining, as detailed in the Materials and Methods section. After evaluating the senolytic activity of the Candidate Compound at the same concentration used in the screening (Figure 9), we conducted further tests using a range of concentrations, from 100 µM to 0.3125 µM, in A549 tumor cells. These tests were performed both in their non-treated (proliferating) state and after the induction of senescence with Bleomycin. In addition, we also assessed the drug's ability to affect cell viability at different time points (24, 48, and 72 hours) by renewing the Compound every 24 hours.

In series [4] the test system is Radiation-Induced senescent A549cells. Description: Crystal violet cell viability / IC50 assay in ionizing radiation-induced senescent A549 cells. Format: cell-based, human. The conditions noted are these: for concentration showing enhanced efficacy (greater cytotoxic effect on senescent cells than proliferating): ionizing radiation 10 Gy. How it is done:
as §1
(§4) Cell viability was tested by crystal violet staining as reported previously (Feoktistova et al. 2016). Both proliferative and senescent cells from different cell lines were plated at a concentration of 1,2 × 10^4 cells per well in a 96-well plate. After a 24 h incubation period, they were treated with Compound 96558 at decreasing concentrations (with DMSO as the control) and at various time points. Subsequently, cells were washed with phosphate-buffered saline (PBS, Merck) and fixed with paraformaldehyde (Electron Microscopy Science) prepared at 2% in PBS for 15 minutes, followed by a 5 min staining process using a 0.1% crystal violet solution in Milli-Q water. After staining, the excess dye was removed, washed 3 times with water, and air dried. Captured crystal violet was solubilized in 10% acetic acid and incubated on an orbital shaker at room temperature for 10 min. The absorbance was measured using a BioTek microplate reader equipped with Gen5 software.
(§5) Cell viability was evaluated following the previously mentioned protocol of crystal violet staining. The IC50 calculations were performed using GraphPad Prism® software.
Subsequently, we aimed to assess the senolytic capability of our Compound using a senescence induction method different from the previous chemotherapy-induced approach. In this regard, we exposed A549 cells to ionizing radiation, confirmed the senescent status (Figure 8B) and conducted a similar assay as described previously.

In series [5] the test system is U87MG glioma cell line, proliferating cells. The experiment in a line: Crystal violet cell viability / IC50 assay in proliferating U87MG cells. Format: cell-based. The conditions noted are these: Homo sapiens, U-87 MG, read-out: quantity required to eliminate at least 50% of proliferative counterparts. As to the method: as §4, §5
To thoroughly explore the senolytic potential of Compound 96558, we employed a different human tumor cell line, specifically the U87MG glioma cell line. […]

Series [6] relates to A549 tumor cells, non-treated (proliferating) state. The experiment in a line: Crystal violet cell viability / IC50 assay in proliferative A549 cells. Format: cell-based, human. As to the method:
as §4, §5
(§6) First, we sought to validate the senolytic potential of the Candidate Compound within the same cell type and under the same conditions of senescence induction as employed during the high-throughput screening. To achieve this, we used A549 cells in which senescence was induced using bleomycin (20 µM; 5 days). Subsequently, following the confirmation of the senescent status of these cells in comparison to the proliferative control (Figure 8A), a cell viability assay was performed, employing crystal violet staining, as detailed in the Materials and Methods section.
(§7) After evaluating the senolytic activity of the Candidate Compound at the same concentration used in the screening (Figure 9), we conducted further tests using a range of concentrations, from 100 µM to 0.3125 µM, in A549 tumor cells. […] In addition, we also assessed the drug's ability to affect cell viability at different time points (24, 48, and 72 hours) by renewing the Compound every 24 hours.

For series [7], the system named is senescent A549 cells. The experiment in a line: Apoptosis assay (Annexin V-FITC/7-AAD flow cytometry) in bleomycin-induced senescent A549 cells. Format: cell-based, human. As to the method: as §2, §3
The nature of series [8]: Crystal violet cell viability / IC50 assay in proliferative A549 cells. The series is classed as cell-based, human. The following applies: human, A549 tumor cells, non-treated (proliferating); untreated (proliferative) cells, at the tested concentration. How it is done: as §4, §5, §6, §7

From patent EP4566610A1, “SENOLYTIC COMPOUNDS” (Universidade de Santiago de Compostela, priority 2023, dated 2025) come the findings set out here.

pIC50: −log10 of the molar value.

Regarding `C#CC(=O)NCCNc1nc(C)nc(C)c1Br` [Compound 96558], the pIC50 in series [1] (Homo sapiens, U-87 MG, senescent cells, palbociclib-induced) is 5.75; in series [3] (senescent cells, 24-hour), 5.43; in series [3] (senescent cells, 48 hours of treatment), 5.74; in series [3] (senescent cells, 72 hours), 5.85; in series [5] it was 4.53. In series [1] (U87MG, IC50 proliferating over senescent), this molecule gave a senolytic index of 16.6. In series [2], the apoptosis induction result was “apoptosis was not induced”. Also, the “concentration with effective cytotoxicity in senescent cells with minimal impact on proliferative cells” value in series [3] (24 hours, bleomycin 20 µM, 5 days) is “around 12.5 µM”. Besides, the “concentration effective for favorable senolytic effect” value in series [3] (48 hours, Compound renewed every 24 hours) was determined as 6.25 µM. Moreover, in series [3] (72 hours, Compound renewed every 24 hours), the “most efficient concentration for senolytic effect” value is given as 3.125 µM. In series [3] (A549, bleomycin, 24, 48, 72 hours), the “senolytic index, the ratio between the IC50 values on proliferating cells over senescent ones” value is “increases with time”. Moreover, the viability entry was “efficient elimination of the senescent cells” in series [3] (senescent cells, low concentrations, 24, 48, and 72 hours); “intact viability” in series [6] (proliferative cells, low concentrations, 24, 48, and 72 hours). The “concentration showing enhanced efficacy (greater cytotoxic effect on senescent cells than proliferating)” value in series [4] (24-hour) was “approximately 12.5 µM”; in series [4] (48 hours) it was 2500 nM; in series [4] (72 hours), 2500 nM. In addition, in series [4] (senescent versus proliferative counterparts, all examined conditions), the IC50 curves entry is recorded as “lower Compound concentrations are required for the eradication of senescent cells”. Also, in series [6] (compared with senescent cells, 24, 48 and 72 hours), the “IC50 values observed for proliferative cells” value is given as “consistently higher”. Further, the “apoptosis induction (FITC-Annexin V-positive and 7-AAD positive)” value in series [7] (Compound treatment versus DMSO, 24 h) is recorded as “a significant proportion of cells were in late apoptosis”. For the same molecule, in series [7] (combination with pan-caspase inhibitor Z-VAD-FMK), the “apoptosis induction (FITC-Annexin V and 7-AAD staining)” value is listed as “the majority of cells appeared as viable cells”.
`CC1(C)CCC(c2ccc(Cl)cc2)=C(CN2CCN(c3ccc(C(=O)NS(=O)(=O)c4ccc(N[C@H](CCN5CCOCC5)CSc5ccccc5)c(S(=O)(=O)C(F)(F)F)c4)cc3)CC2)C1` [Navitoclax, reference compound]: the viability entry in series [3] (Bleomycin-induced senescent cells, at the tested concentration) is “significantly affected”; in series [8], around 100%.

Usually viability stands for a per cent measure of how many cells are alive, often set against a control. Low readings indicate a greater loss of cells, high ones better survival.
